Laboratory results taken from patent US20030039628A1, “Activation and protection of T-cells (CD4+ and CD8+) using an H2 receptor agonist and other T-cell activating agents” (priority 1998, published 2003).

Key:
H2 receptor = H2 receptor (Homo sapiens, UniProt P25021); conditions: cited from earlier work
T-cells and NK-cells = assay: MO-induced cell death (apoptosis) of T-cells and NK-cells, flow cytometry; type: cell-based, human
Experimental: In this Example, apoptotic morphology of lymphocytes exposed to MO was monitored by staining cells with a dye mix containing acridine orange (10:g/ml; Sigma) and ethidium bromide (10:g/ml; Sigma), both prepared in phosphate buffered saline. One microliter (1:1) of dye mix was added to 25:1 of cells suspension (1-2×10^6/ml) in siliconized test tubes. Thereafter, 10:1 of the cell suspension was placed on a glass slide and immediately counted in a fluorescence microscope (Nikon) under times forty (×40) magnification with qualification of dead, living, apoptotic and non-apoptotic cells. (See Hellstrand, K., et al. J. Immunol., 153: 4940-4947 (1994); Hansson, M., et al., J. Immunol. 156:42-47 (1996)).
(See Hansson M., et al., supra). Cell death in lymphocytes was monitored by gating nonviable T-cells or NK-cells after exposure to MO, with and without histamine or catalase. A gate with reduced forward scatter and increased right angle scatter characteristic of apoptosis was employed in these studies. (See Hansson M., et al., supra; Mizgerd J. P., et al., J. Leukoc. Biol. 59:189 (1996); herein incorporated by reference; gate also described in Example 1).

[1] = test system: CD69 expression on T-cells; assay: CD69 expression on T-cells incubated with or without autologous monocytes (MO), flow cytometry; type: cell-based, human
Experimental: To study the activation characteristics of T-cells in the presence and absence of MO, T-cell activation compounds, H2-receptor agonists, and H2O2 scavengers, peripheral venous blood was obtained as freshly prepared leukopacks from healthy blood donors at the Blood Centre, Sahlgren's Hospital, Göteborg, Sweden. The blood (65 ml) was mixed with 92.5 ml Iscove's medium, 35 ml 6% Dextran (Kabi Pharmacia, Stockholm, Sweden) and 7.5 ml acid citrate dextrose (ACD) (Baxter, Deerfield, Ill.). After incubation for 15 minutes at room temperature, the supernatant was carefully layered onto Ficoll-Hypaque (Lymphoprep, Myegaard, Norway). Mononuclear cells (MNC) were collected at the interface after centrifugation at 380 g for 15 minutes at room temperature, washed twice in PBS and resuspended in Iscove's medium supplemented with 10% human AB^+ serum. During all further separation of cells, the cell suspensions were kept in siliconized test tubes (Vacuette, Greiner, Stockholm).
The MNC were further separated into lymphocyte and monocyte (MO) populations using the counter-current centrifugal elutriation (CCE) technique originally described by Yasaka and co-workers (Yasaka, T. et al., J. Immunol., 127:1515) with modifications as described in Hansson, M., et al. (J. Immunol., 156: 42 (1996); hereby incorporated by reference). Briefly, the MNC were resuspended in elutration buffer containing 0.05% BSA and 0.015% EDTA in buffered NaCl and fed into a Beckman J2-21 ultracentrifuge with a JE-6B rotor at 2100 rpm. A fraction with >90% MO was obtained at a flow rate of 18 ml/min. A lymphocyte fraction enriched for NK-cells (CD3^−/56^+ phenotype) and T-cells (CD3^+/56^−) was recovered at flow rates of 14-15 ml/min. […] In some experiments, dynabeads (Dynal A/S, Oslo, Norway) coated with anti-CD56 were used to obtain purified lymphocyte preparations of T-cells, as described in detail by Hansson, M., et al., incorporated above.
Flow cytometry was used in the experiments described below to identify the various sub-populations of T-cells. Flow cytometry permits an investigator to examine a population of cells using a number of labeled probes to differentiate sub-populations within the larger whole. In these experiments, the CD3 marker was used to identify the subpopulation of T-cells and the CD4 and CD8 markers were used to further identify the subpopulation of T-cells into T helper cells and CTLs. The effects of MO exposure in the presence and absence of histamine and T-cell activation compounds were determined using the CD69 T-cell activation marker. The expression of the different markers was estimated in a lymphocyte gate using flow cytometry (as described in Hellstrand, K., et al. Cell. Immunol. 138: 44-54 (1991), and hereby incorporated by reference).
The following protocol was used in experiments reporting the detection of surface antigens of cell populations. One million cells were incubated with appropriate fluorescein isothiocynate (FITC) and phycoerythrin (PE) conjugated monoclonal antibodies (Becton & Dickinson, Stockholm, Sweden; 1:1/10^6 cells), on ice for 30 minutes. The cells were washed twice in PBS and resuspended in 500:1 sterile filtered PBS and analyzed by use of flow cytometry on a FACSort with a Lysys II software program (Becton & Dickenson). Lymphocytes were gated on the basis of forward and right angle scatter. The flow rate was adjusted to <200 cells×s^− and at least 5×10^3 cells were analyzed for each sample, if not otherwise stated.
Isolated peripheral blood lymphocytes (150,000 cells/well in a total volume of 0.2 ml) were incubated in microplates for 16 hours at 37° C. in the presence or absence of autologous MO.

NK cells [2] = conditions: cited from earlier work
[3] = test system: T-cell enriched lymphocytes; type: cell-based, human
lymphocytes = conditions: cited from earlier work
NK cells [4] = conditions: absence of monocytes; cited from earlier work
[5] = test system: herpes simplex virus (HSV); conditions: single dose of histamine; cited from earlier work
[6] = test system: CD3e+ T-cells and CD56+ NK-cells; conditions: cited from earlier work

Sequence of H2 receptor (P25021 whole entry): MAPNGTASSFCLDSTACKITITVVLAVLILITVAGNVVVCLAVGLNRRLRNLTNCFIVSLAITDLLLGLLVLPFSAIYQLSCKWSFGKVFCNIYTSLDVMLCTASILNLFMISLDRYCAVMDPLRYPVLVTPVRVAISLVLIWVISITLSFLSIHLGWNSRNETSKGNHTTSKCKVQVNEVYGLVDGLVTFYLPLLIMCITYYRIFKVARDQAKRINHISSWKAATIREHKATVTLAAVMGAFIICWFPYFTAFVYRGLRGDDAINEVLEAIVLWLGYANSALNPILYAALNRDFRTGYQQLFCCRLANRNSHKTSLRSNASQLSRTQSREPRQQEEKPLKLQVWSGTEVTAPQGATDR

CNC(=C[N+](=O)[O-])NCCOCc1ccc(CN(C)C)o1 [AH20399AA]
reduction of affinity for the H2 receptor relative to ranitidine (H2 receptor): > 50 fold
reversal of the histamine effect on MO-induced cell death (T-cells and NK-cells; concentrations equimolar to 10-fold lower than histamine): not
antagonism of the histamine response on cytokine-induced CD69 expression ([1]; equimolar or 10-fold lower concentrations than histamine): did not block

CN(C)CCCSC(=N)N [dimaprit]
action on histamine's effect on granulocyte mediated suppression of NK cell antibody dependent cytotoxicity (NK cells [2]): mimicked

NCCc1c[nH]cn1 [histamine]
effect on vaccine-induced proliferation [3]: strongly potentiated
proliferation of cells not treated with the vaccine [3]: slightly augmented
effect on lymphocyte proliferation in response to phytohemagglutinin or staphylococcal enterotoxin type A (lymphocytes): reduce the proliferation
effect on NK mediated cytotoxicity (NK cells [4]): no effect or weakly suppressed
survival time of HSV-inoculated animals [5]: prolong survival time
prevention of MO-induced cell death (T-cells and NK-cells; all subsets of T-cells and NK-cells, histamine 50 :M, 16 hours): > 80%
effect on CD69 expression in CD3+ and CD4+ T-cells incubated with IFN-α ([1]; MO present vs. absence of MO): enhanced the expression of CD69 to a significantly higher level
effect on MO-induced inhibition of IL-2 induced acquisition of CD69 in T-cells ([1]; histamine 50 :M, IL-2 100 U/ml, with MO): counteracted
effect on CD69 expression in non-stimulated or cytokine-activated T-cells ([1]; histamine 50 :M, incubated without MO): did not significantly alter
effect on CD69 expression in CD8+ cells activated with IFN-α ([1]; with MO): restored by histamine to the level observed in pure lymphocytes
ED50 of effect on cytokine-induced expression of CD69 in T-cells ([1]; with MO, histamine 0.1-50:M, dose-dependent): approximately 2 :M

OO [hydrogen peroxide]
concentration required to induce apoptosis in CD3e+ T-cells relative to CD56+ NK-cells [6]: Approximately 5 fold

CNC(=C[N+](=O)[O-])NCCSCc1ccc(CN(C)C)o1 [ranitidine]
action on histamine's effect on granulocyte mediated suppression of NK cell antibody dependent cytotoxicity (NK cells [2]): blocked

IFN-α
effect of concomitant treatment on MO-induced cell death and on histamine protection (T-cells and NK-cells; 100 U/ml): unaffected
change of IFN-α-induced CD69 in CD3e+ cells by the addition of MO ([1]; IFN-α, with vs. without MO): seemingly unchanged
induction of CD69 in CD3e+ cells ([1]; in response to IFN-α (100 U/ml)): ~10%
induction of CD69 in CD4+ cells compared with IL-2 ([1]; incubated without MO, p<0.01): less effective than IL-2
IFN-α induced level of CD69 on CD4+ cells when MO were added ([1]; with vs. without MO, p<0.05): significantly higher

catalase
mimicking of the histamine effect on MO-induced cell death (T-cells and NK-cells): mimicked
effect on induction of CD69 in the absence of MO ([1]; absence of MO): did not affect
effect on MO-induced inhibition of cytokine-induced CD69 expression ([1]; catalase 10-200 U/ml, IL-2 100 U/ml, with MO): significantly reversed
effect of catalase alone on percentage of CD3+ cells expressing CD69 ([1]; catalase alone, 0 to 200 U/ml, with MO): little effect
percentage of CD3+ cells expressing the CD69 marker ([1]; with MO, IL-2 100 U/ml, catalase 200 U/ml): ~11%
